Data taken from patent US20130029983A1, “AMINOTHIENOPYRIDAZINE INHIBITORS OF TAU ASSEMBLY” (priority 2009, published 2013).
Like-named read-outs stand apart in the source and are kept apart here.

Key:
[1] = biological target: T1, K18PL tau (Homo sapiens, UniProt P10636, P618L); test: Heparin-induced K18PL tau fibrillization assay monitored by ThT fluorescence; format: biochemical; details: for Emax: read-out: K18PL (ThT) maximal percent inhibition achieved in the assay
T1 construct: (K18PL; amino acids 244-369); made in house
T1 sequence (P10636 561-686 P618L): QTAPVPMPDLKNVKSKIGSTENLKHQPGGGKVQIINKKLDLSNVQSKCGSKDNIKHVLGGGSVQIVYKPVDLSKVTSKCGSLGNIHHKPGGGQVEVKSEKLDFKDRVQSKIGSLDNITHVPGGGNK
Method in brief: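 K18PL (30 μM stock, with 0.24 μM Alexa Red-labeled K18PL) plus 40 μM heparin and compound, fibrillized 6 h at 37 °C. Fibrils read by ThT (12.5 μM final, in 100 mM glycine pH 8.5, 1 h RT), ex 450/em 510 nm. Percent inhibition scaled between DMSO wells and non-fibrillizing K18 KD control wells.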

[2] = biological target: T2, full-length tau (tau40) (Homo sapiens, UniProt P10636); test: Tau40 fibrillization sedimentation assay; format: biochemical; details: SDS-PAGE of soluble and insoluble fractions after centrifugation; for Emax: read-out: Tau40 Sed. Assay, maximal percent inhibition of tau40 fibrillization
T2 construct: Full length tau (Tau40; amino acids 1-441); made in house
T2 sequence (P10636 1-441 isoform P10636-8): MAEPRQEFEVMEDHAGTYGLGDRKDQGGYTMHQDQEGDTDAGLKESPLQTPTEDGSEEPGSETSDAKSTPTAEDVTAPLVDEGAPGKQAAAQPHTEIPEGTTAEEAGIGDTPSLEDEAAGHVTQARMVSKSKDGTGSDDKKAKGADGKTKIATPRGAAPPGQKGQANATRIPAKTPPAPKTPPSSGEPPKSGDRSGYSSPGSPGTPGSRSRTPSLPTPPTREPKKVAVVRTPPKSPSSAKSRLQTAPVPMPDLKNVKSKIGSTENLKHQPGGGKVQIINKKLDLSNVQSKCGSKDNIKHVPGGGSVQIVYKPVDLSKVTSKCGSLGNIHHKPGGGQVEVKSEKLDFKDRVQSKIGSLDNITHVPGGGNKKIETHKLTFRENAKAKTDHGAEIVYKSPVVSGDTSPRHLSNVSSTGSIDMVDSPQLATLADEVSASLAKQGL
Description: The determination of compound-induced effects on the amount of tau that remains soluble upon centrifugation, and EM visualization of tau species following incubation with test compounds, were as previously described (Crowe, A., Ballatore, C., Hyde, E., Trojanowski, J. Q., and Lee, V. M. Y. (2007) Biochemical and Biophysical Research Communications 358, 1-6). […]

[3] = Turbidimetric solubility in fibrillization buffer; format: physicochemical; details: 100 mM NaOAc pH 7.0 fibrillization buffer, 1% DMSO
Description: Compounds were serially diluted in DMSO to achieve a 2.5 fold dilution series from 20 mM down 8 points to […] on a 384-well master plate (Costar 3672). Aliquots (2 μL) were transferred to a clear 96-well assay plate (Fisher 12-565-501) containing 198 μL fibrillization buffer (100 mM NaOAc pH 7.0) for a 100-fold dilution (200 μM down to 0.3 μM). The plate was incubated with agitation for 2.5 h, and the absorbance at 550, 600, 650 and 700 nm was measured on a Spectramax M5 spectrophotometer. DMSO (1%) in fibrillization buffer served as a control that was subtracted from each data point. The absorbances were averaged and the concentration at which the average absorbance rose above 0.03 AU was an indication of insoluble compound, with solubility limits reported as the previous concentration in the dilution series.

[4] = Table 5, read-out: K18PL (ThT) IC50 value

SMILES | IC50 [1, 4] | Emax ([1]; Table 5) | Tau40 Sed. Assay, maximal percent inhibition of tau40 fibrillization [2] | Emax [2] | Water Solubility [3] | inhibition at 80 µM ([1]; Table 3, highest tested concentration (80 μM), read-out: Tau ThT Assay % Inhib.) | IC50 ([1]; Table 3, logarithm of IC50, K18PL tau ThT fluorescence inhibition, NC = not calculated due to insufficient activity, read-out: Tau ThT Assay Log IC50 (converted))
Nc1scc2c(C(=O)NC3CC3)nn(-c3ccc(Cl)cc3)c(=O)c12 [CNDR-51362, 5-Amino-3-(4-chlorophenyl)-N-cyclopropyl-4-oxo-3,4-dihydrothieno[3,4-d]pyridazine-1-carboxamide] | 4.6 µM | 87% | 58% | 50 to 60% | 32 µM |  | 
CCOC(=O)c1nn(-c2ccc(Cl)cc2)c(=O)c2c(N)scc12 [Compound 17, Ethyl 5-amino-3-(4-chlorophenyl)-4-oxo-3,4-dihydrothieno[3,4-d]pyridazine-1-carboxylate] | 3.1 µM | 71% | 48% | 50 to 60% | 13 µM | 84% | 3.98 µM
